Data published in PMC7587962, “Evaluation of Cytotoxicity and α-Glucosidase Inhibitory Activity of Amide and Polyamino-Derivatives of Lupane Triterpenoids” (Molecules, 2020).
Like-named read-outs stand apart in the source and are kept apart here.

Tests used:
Cryptococcus neoformans = assay: Antifungal growth inhibition, C. neoformans; design: activity class in primary screening: dose or concentration left out as unconfirmed; settings: for inhibition at 32 µg/mL: Cryptococcus neoformans, ATCC208821, read-out: % Growth inhibition
Method: (§2) The antifungal activity was determined against Candida albicans and Cryptococcus neoformans.
(§3) Samples were prepared in DMSO and water to a final testing concentration of 32 µg/mL, in 384-well, non-binding surface plate (NBS) for each bacterial/fungal strain, and in duplicate (n = 2) and keeping the final DMSO concentration to a maximum of 1% DMSO. All the sample-preparation was done using liquid handling robots.
(§4) Fungi strains were cultured for 3 days on Yeast Extract-Peptone Dextrose (YPD) agar at 30 °C. A yeast suspension of 1 × 10^6 to 5 × 10^6 CFU/mL (as determined by OD530) was prepared from five colonies. The suspension was subsequently diluted and added to each well of the compound-containing plates giving a final cell density of fungi suspension of 2.5 × 10^3 CFU/mL and a total volume of 50 µl. All plates were covered and incubated at 35 °C for 24 h without shaking.
(§5) The absorbance was measured using a Biotek Synergy HTX plate reader. The percentage of growth inhibition was calculated for each well, using negative control (media only) and positive control (fungi without inhibitors) on the same plate. The significance of the inhibition values was determined by modified Z-scores, calculated using the median and MAD of the samples (no controls) on the same plate. Samples with an inhibition value above 80% and Z-score above 2.5 for either replicate (n = 2 on different plates) were classed as actives. Samples with inhibition values between 50% and 80% and a Z-score above 2.5 for either replicate were classed as partial actives.

Klebsiella pneumonia = assay: Antibacterial growth inhibition, K. pneumonia; type: cell-based; settings: Klebsiella pneumoniae, ATCC700603, K. pneumonia Strain ATCC 700603
Pseudomonas aeruginosa = assay: Antibacterial growth inhibition, P. aeruginosa; type: cell-based; settings: P. aeruginosa Strain 19606
Candida albicans = assay: Antifungal growth inhibition, C. albicans; settings: ATCC90028, read-out: % Growth inhibition
Method: as §2, §3, §4, §5

Escherichia coli = assay: Antibacterial growth inhibition, E. coli; type: cell-based; settings: ATCC25922, E. coli Strain ATCC 25922
Acinetobacter baumannii = assay: Antibacterial growth inhibition, A. baumannii; type: cell-based; settings: ATCC27853, A. baumannii Strain ATCC 27853
[1] = system: pathogenic microorganisms; assay: Primary antimicrobial screening, five bacterial strains and two fungi; design: dose or concentration left out as unconfirmed
Method: The antifungal activity was determined against Candida albicans and Cryptococcus neoformans. […] Samples with inhibition value above 80% were classed as actives. Samples with inhibition values between 50 and 80% were classed as partial actives.
as §3
All bacteria were cultured in cation-adjusted Mueller Hinton broth (CAMHB) at 37 °C overnight. A sample of each culture was then diluted 40-fold in fresh broth and incubated at 37 °C for 1.5–3 h. The resultant mid-log phase cultures were diluted (CFU/ ml measured by OD600), then added to each well of the compound containing plates, giving a cell density of 5 × 10^5 CFU/mL and a total volume of 50 µl. All the plates were covered and incubated at 37 °C for 18 h without shaking.
Inhibition of bacterial growth was determined measuring absorbance at 600 nm (OD600), using a Tecan M1000 Pro monochromator plate reader. The percentage of growth inhibition was calculated for each well, using negative control (media only) and positive control (bacteria without inhibitors) on the same plate as references. The significance of the inhibition values was determined by modified Z-scores, calculated using the median and MAD of the samples (no controls) on the same plate. Samples with inhibition value above 80% and Z-score above 2.5 for either replicate were classed as actives. […]
Fungi strains were cultured for 3 days on Yeast Extract-Peptone Dextrose (YPD) agar at 30 °C. A yeast suspension of 1 × 10^6 to 5 × 10^6 CFU/mL (as determined by OD530) was prepared from five colonies. […]
The absorbance was measured using a Biotek Synergy HTX plate reader. The percentage of growth inhibition was calculated for each well, using negative control (media only) and positive control (fungi without inhibitors) on the same plate. […]

SR = assay: NCI-60 SRB screen: leukemia SR; type: cell-based; settings: Homo sapiens, 48 h, single dose 10 µM, read-out: Percentage Cell Growth
[2] = system: methicillin-resistant Staphylococcus aureus (MRSA); assay: Antibacterial growth inhibition, S. aureus; type: cell-based; settings: for inhibition at 32 µg/mL: Staphylococcus aureus, ATCC 43300 / MRSA, S. aureus Strain ATCC 43300
[3] = system: 60 human tumor cell lines; assay: cells
Yeast α-Glucosidase = assay: Yeast α-glucosidase activity assay; type: biochemical, S. cerevisiae; settings: pH 6.8, 37 °C, p-nitrophenyl-α-D-glucopyranoside 1 mM; read-out: Yeast α-Glucosidase, IC50 ± SE
Method: (§1) Taken together, these considerations prompted us to evaluate a series of lupanes with amide function or polyamine chain 11, 12, 16, 18, and 22–26 for α-glucosidase inhibition. Initially, they were screened against α-glucosidase of S. cerevisiae as an accessible and high-throughput model. Confirmatory experiments were performed on isolated rough endoplasmic reticulum vesicles from rat liver, which contain neutral α-glucosidases I and II in a membrane-bound form.
In a 96-well flat transparent plate, the 0.12 U/mL enzyme solution (EC 3.2.1.20, expressed in S. cerevisiae, Sigma #G0660, St. Louis, MO, USA) was incubated with test compounds in 67 mM PBS (pH 6.8) at 37 °C for 5 min. Then, p-nitrophenyl-α-D-glucopyranoside (Sigma #N1377, St. Louis, MO, USA) was added to 1 mM final concentration and an increase in absorbance was recorded for 15 min at 405 nm wavelength with Infinite M200 PRO microplate reader (Tecan, Austria). Test compounds were dissolved in DMSO and diluted to the desired concentration in 67 mM PBS (pH 6.8) supplemented with 0.01% Tween 80 to avoid aggregation. Final DMSO concentration was <0.25% in sample wells, and it was also introduced in control and blank wells. […] Due to the absence of normal distribution of data, a Mann–Whitney U-test was used to determine statistical significance versus enzyme control using GraphPad Prism 8.0.1.

[4] = system: Rat Liver ER Neutral α-Glucosidase; assay: Endoplasmic reticulum α-glucosidase activity assay; type: biochemical
Source text: as §1, with “Betulinic acid inhibits yeast α-glucosidase activity and interferes with N-linked glycan modifications to cell-surface intercellular adhesion molecule-1 (ICAM-1) in human lung carcinoma A549 cells in a similar manner to castanospermine, an inhibitor of endoplasmic reticulum α-glucosidases I and II [66]. […] Taken” for “Taken”
Endoplasmic reticulum was isolated from hepatocytes of decapitated male Sprague-Dawley rats, which were starved overnight and sacrificed the next morning. All experiments were approved by Volgograd regional ethic committee. The whole procedure was performed at 4 °C. In brief, a fresh tissue sample from an animal was washed twice with 10 mL of PBS to remove residual blood. The tissue was placed on a paper towel in order to absorb excess liquid and blood clots, if present. It was cut further into small pieces (1.5–2 cm) and washed once more. […] Homogenate was centrifuged at 1000× g for 10 min at 4 °C. After removal of the floating lipid layer by aspiration, supernatant was separated and centrifuged at 12,000× g for 15 min. at 4 °C. The supernatant fraction, which is the post mitochondrial fraction (PMF), was used for isolation of rough endoplasmic reticulum (RER) enriched microsomes by precipitation with 8 mM CaCl2 added dropwise. The final concentration of CaCl2 was 7 mM. Resulting sample was centrifuged at 8000 g for 10 min. at 4 °C. The supernatant was discarded, and the pellet was suspended in isotonic extraction buffer (0.3 mL of buffer for each g of original tissue). The suspension was homogenized completely to afford RER enriched microsomes. In a 96-well flat transparent plate 25 µL of the isolated RER microsomes were incubated with 50 µL of test compounds in 67 mM PBS (pH 6.8) at 37 °C for 10 min. Then, p-nitrophenyl-α-D-glucopyranoside (Sigma #N1377, St. Louis, MO, USA) was added to 1 mM final concentration and increase in absorbance was recorded for 42 min at 405 nm wavelength with Infinite M200 PRO microplate reader (Tecan, Austria). Concentration of RER microsomes was adjusted to achieve an increase in optical density of ~0.2 in control samples after 30 min. of incubation. Test compounds were prepared as described above for the yeast α-glucosidase assay.

Q: `C=C(C)[C@@H]1CC[C@]2(C(=O)N3CCCNCC3)CC[C@]3(C)[C@H](CC[C@@H]4[C@@]5(C)CCC(=O)C(C)(C)[C@@H]5CC[C@]43C)[C@@H]12` [Compound 2, 28-(1,4-Diazepan-1-yl)-28-oxolup-20(29)-en-3-one] was tested. Which inhibition at 32 µg/mL (Cryptococcus neoformans) did it give?
A: -5.9%

Q: What about the inhibition at 32 µg/mL (Klebsiella pneumonia) of the same molecule?
A: 0.98%

Q: What about the inhibition at 32 µg/mL (Pseudomonas aeruginosa) of the same molecule?
A: 8.34%

Q: And the inhibition at 32 µg/mL (Candida albicans)?
A: 4.14%

Q: And the inhibition at 32 µg/mL (Escherichia coli)?
A: 1.96%

Q: What about the inhibition at 32 µg/mL (Acinetobacter baumannii) of the same molecule?
A: 33.1%

Q: And the “inhibition of growth of pathogenic microorganisms” value [1]?
A: did not inhibit the growth

Q: What about the activity at 10 µM (SR) of the same molecule?
A: 8.04%

Q: And the inhibition at 32 µg/mL [2]?
A: 40.3%

Q: What about the activity at 10 µM ([3]; read-out: Mean Growth, %) of the same molecule?
A: 89.5%

Q: And the activity at 10 µM ([3]; read-out: Range of Growth, %)?
A: 8.04 to 127%

Q: `C=C(C)[C@@H]1CC[C@]2(C(=O)NCCNCCN)CC[C@]3(C)[C@H](CC[C@@H]4[C@@]5(C)CCC(=O)C(C)(C)[C@@H]5CC[C@]43C)[C@@H]12` [Compound 12] was tested. Which “activity class in primary screening” value (Cryptococcus neoformans; C. neoformans, one concentration) did it give?
A: partial activity

Q: And the inhibition at 32 µg/mL (Cryptococcus neoformans)?
A: 62.6%

Q: What about the inhibition at 32 µg/mL (Klebsiella pneumonia) of the same molecule?
A: 9.2%

Q: And the inhibition at 32 µg/mL (Pseudomonas aeruginosa)?
A: 7.72%

Q: And the inhibition at 32 µg/mL (Candida albicans)?
A: 11.7%

Q: And the inhibition at 32 µg/mL (Escherichia coli)?
A: -9.57%

Q: And the inhibition at 32 µg/mL (Acinetobacter baumannii)?
A: 19.5%

Q: What about the IC50 (Yeast α-Glucosidase) of the same molecule?
A: > 100 µM

Q: What about the inhibition at 32 µg/mL [2] of the same molecule?
A: 71.8%

Q: What about the “activity class in primary screening” value ([2]; methicillin-resistant S. aureus, one concentration of 32 µg/mL) of the same molecule?
A: partial activity

Q: And the activity at 10 µM ([3]; read-out: Mean Growth, %)?
A: 98.9%

Q: And the activity at 10 µM ([3]; read-out: Range of Growth, %)?
A: 59.1 to 141%

Q: And the “Rat Liver ER Neutral α-Glucosidase Inhibition, m ± SD” value ([4]; 10 μM)?
A: 10.21 ± 3.49%

Q: And the “Rat Liver ER Neutral α-Glucosidase Inhibition, m ± SD” value ([4]; 100 μM)?
A: 23.59 ± 1.34 %

Q: Which results are given for `C=C(C)[C@@H]1CC[C@]2(C=NCCCNCCCCN)CC[C@]3(C)[C@H](CC[C@@H]4[C@@]5(C)CCC(=O)C(C)(C)[C@@H]5CC[C@]43C)[C@@H]12` [Compound 22]?
A: IC50 (Yeast α-Glucosidase): > 100 µM; activity at 10 µM ([3]; read-out: Mean Growth, %): 102%; activity at 10 µM ([3]; read-out: Range of Growth, %): 80.5 to 123%; Rat Liver ER Neutral α-Glucosidase Inhibition, m ± SD ([4]; 10 μM): 31.42 ± 7.96 %; Rat Liver ER Neutral α-Glucosidase Inhibition, m ± SD ([4]; 100 μM): 58.52 ± 8.21 %

Q: Which results are given for `C=C(C)[C@@H]1CC[C@]2(C(=O)NCCCNCCCN)CC[C@]3(C)[C@H](CC[C@@H]4[C@@]5(C)CCC(=O)C(C)(C)[C@@H]5CC[C@]43C)[C@@H]12` [Compound 16]?
A: IC50 (Yeast α-Glucosidase): > 100 µM; activity at 10 µM ([3]; read-out: Mean Growth, %): 101%; activity at 10 µM ([3]; read-out: Range of Growth, %): 59.3 to 141%; Rat Liver ER Neutral α-Glucosidase Inhibition, m ± SD ([4]; 10 μM): 9.05 ± 6.68%; Rat Liver ER Neutral α-Glucosidase Inhibition, m ± SD ([4]; 100 μM): 14.94 ± 6.31%

Q: For `C=C(C)[C@@H]1CC[C@]2(C(=O)OC)CC[C@]3(C)[C@H](CC[C@@H]4[C@@]5(C)C/C(=C/NC(N)=O)C(=O)C(C)(C)[C@@H]5CC[C@]43C)[C@@H]12` [Compound 25], which inhibition at 32 µg/mL (Cryptococcus neoformans) is on record?
A: -7.93%

Q: What about the inhibition at 32 µg/mL (Klebsiella pneumonia) of the same molecule?
A: 2.44%

Q: What about the inhibition at 32 µg/mL (Pseudomonas aeruginosa) of the same molecule?
A: -8.92%

Q: And the inhibition at 32 µg/mL (Candida albicans)?
A: 14%

Q: What about the inhibition at 32 µg/mL (Escherichia coli) of the same molecule?
A: -5.34%

Q: What about the inhibition at 32 µg/mL (Acinetobacter baumannii) of the same molecule?
A: 40.9%

Q: What about the “inhibition of growth of pathogenic microorganisms” value [1] of the same molecule?
A: did not inhibit the growth

Q: And the IC50 (Yeast α-Glucosidase)?
A: 53.3 ± 5.7 µM

Q: And the activity at 10 µM (SR)?
A: 21.2%

Q: And the inhibition at 32 µg/mL [2]?
A: 19.8%

Q: What about the activity at 10 µM ([3]; read-out: Mean Growth, %) of the same molecule?
A: 91.7%

Q: And the activity at 10 µM ([3]; read-out: Range of Growth, %)?
A: 21.2 to 112%

Q: And the “Rat Liver ER Neutral α-Glucosidase Inhibition, m ± SD” value ([4]; 10 μM)?
A: 8.76 ± 9.63%

Q: And the “Rat Liver ER Neutral α-Glucosidase Inhibition, m ± SD” value ([4]; 100 μM)?
A: 9.62 ± 6.94%

Q: Which inhibition at 32 µg/mL (Cryptococcus neoformans) does the source give for `C=C(C)[C@@H]1CC[C@]2(C(=O)OC)CC[C@]3(C)[C@H](CC[C@@H]4[C@@]5(C)C/C(=C/NC(N)=S)C(=O)C(C)(C)[C@@H]5CC[C@]43C)[C@@H]12` [Compound 26] here?
A: -13%

Q: And the inhibition at 32 µg/mL (Klebsiella pneumonia)?
A: -3.89%

Q: And the inhibition at 32 µg/mL (Pseudomonas aeruginosa)?
A: -4.64%

Q: What about the inhibition at 32 µg/mL (Candida albicans) of the same molecule?
A: 5.83%

Q: And the inhibition at 32 µg/mL (Escherichia coli)?
A: -7.03%

Q: What about the inhibition at 32 µg/mL (Acinetobacter baumannii) of the same molecule?
A: 28.2%

Q: And the “inhibition of growth of pathogenic microorganisms” value [1]?
A: did not inhibit the growth

Q: What about the IC50 (Yeast α-Glucosidase) of the same molecule?
A: > 100 µM

Q: What about the inhibition at 32 µg/mL [2] of the same molecule?
A: 12.7%

Q: And the activity at 10 µM ([3]; read-out: Mean Growth, %)?
A: 90.5%

Q: What about the activity at 10 µM ([3]; read-out: Range of Growth, %) of the same molecule?
A: 60.9 to 126%

Q: And the “Rat Liver ER Neutral α-Glucosidase Inhibition, m ± SD” value ([4]; 10 μM)?
A: 11.63 ± 9.09%

Q: And the “Rat Liver ER Neutral α-Glucosidase Inhibition, m ± SD” value ([4]; 100 μM)?
A: 26.60 ± 13.03%

Q: For `C=C(C)[C@@H]1CC[C@]2(C=NCCCNCCCCN)CC[C@]3(C)[C@H](CC[C@@H]4[C@@]5(C)CCCNC(C)(C)[C@@H]5CC[C@]43C)[C@@H]12` [Compound 24], which IC50 (Yeast α-Glucosidase) is on record?
A: > 100 µM

Q: And the activity at 10 µM (SR)?
A: 21.7%

Q: What about the activity at 10 µM ([3]; read-out: Mean Growth, %) of the same molecule?
A: 93.6%

Q: What about the activity at 10 µM ([3]; read-out: Range of Growth, %) of the same molecule?
A: 21.7 to 132%

Q: What about the “Rat Liver ER Neutral α-Glucosidase Inhibition, m ± SD” value ([4]; 10 μM) of the same molecule?
A: 26.96 ± 2.33 %

Q: What about the “Rat Liver ER Neutral α-Glucosidase Inhibition, m ± SD” value ([4]; 100 μM) of the same molecule?
A: 54.62 ± 15.38 %
